Measured values: patent publication US20260098045A1, “CRYSTALLINE FORM OF (3S,7S,10R,13R)-13-BENZYL-20-FLUORO-7-ISOBUTYL-N-(2-(3-METHOXY-1,2,4-OXADIAZOL-5-YL)ETHYL)-6,9-DIMETHYL-1,5,8,11-TETRAOXO-10-(2,2,2-TRIFLUOROETHYL)-1,2,3,4,5,6,7,8,9,10,11,12,13,14-TETRADECAHYDRO-[1]OXA[4,7,10,14]TETRAAZACYCLOHEPTADECINO[16,17-F]QUINOLINE-3-CARBOXAMIDE” (Idorsia Pharmaceuticals Ltd, priority 2022, published 2026)

Assay: Gravimetric vapour sorption (GVS) analysis
Assay type: physicochemical
Conditions: sample of Example 6
Description: Measurements are performed on a multi-sample instrument SPS-100n (Projekt Messtechnik, Ulm, Germany), which is operated in stepping mode at 25° C. A sample of approximately 20 mg is equilibrated at 40% RH before starting a pre-defined humidity program of 40-0-95-0-95-40% RH with steps of 5% ARH and a maximum equilibration time of 24 h per step. The hygroscopic classification is done according to the European Pharmacopeia Technical Guide (1999, page 86), e.g., non-hygroscopic: increase in mass less than 0.2% mass/mass; slightly hygroscopic: increase in mass is less than 2% and equal to or greater than 0.2% mass/mass; hygroscopic: increase in mass is less than 15% and equal to or greater than 2% mass/mass. The mass change between 40% relative humidity and 80% relative humidity in the first adsorption scan is evaluated for this classification.

SMILES: COc1noc(CCNC(=O)[C@@H]2CC(=O)N(C)[C@@H](CC(C)C)C(=O)N(C)[C@H](CC(F)(F)F)C(=O)N[C@H](Cc3ccccc3)COc3ccc4ncc(F)cc4c3C(=O)N2)n1 [form 1 of the COMPOUND, (3S,7S,10R,13R)-13-benzyl-20-fluoro-7-isobutyl-N-(2-(3-methoxy-1,2,4-oxadiazol-5-yl)ethyl)-6,9-dimethyl-1,5,8,11-tetraoxo-10-(2,2,2-trifluoroethyl)-1,2,3,4,5,6,7,8,9,10,11,12,13,14-tetradecahydro-[1]oxa[4,7,10,14]tetraazacycloheptadecino[16,17-f]quinoline-3-carboxamide]
- GVS change of the water content (between 0% and 95% RH, 25° C., almost linear, small hysteresis between ca. 50% and 85% RH): 2%
- GVS maximum water content (corresponds to approximately 1 equivalent of water): 2%
